We go through 21 compounds from patent US11905274B2, “Receptor inhibitors, pharmaceutical compositions comprising the same and use thereof” (BEIJING TIDE PHARMACEUTICAL CO., LTD., priority 2018, dated 2024).

The target in one data set is AT1 Receptor (AT1R) (Homo sapiens (Human), UniProt P30556). As to the kind of experiment: Inhibitory activity on AT1 receptor (Tag-lite HTRF, Tb-labeled AT1R cells, angiotensin receptor red agonist). The class given is binding. The settings on record: 1 h at room temperature.
Chain of AT1 Receptor (AT1R) (P30556 whole entry): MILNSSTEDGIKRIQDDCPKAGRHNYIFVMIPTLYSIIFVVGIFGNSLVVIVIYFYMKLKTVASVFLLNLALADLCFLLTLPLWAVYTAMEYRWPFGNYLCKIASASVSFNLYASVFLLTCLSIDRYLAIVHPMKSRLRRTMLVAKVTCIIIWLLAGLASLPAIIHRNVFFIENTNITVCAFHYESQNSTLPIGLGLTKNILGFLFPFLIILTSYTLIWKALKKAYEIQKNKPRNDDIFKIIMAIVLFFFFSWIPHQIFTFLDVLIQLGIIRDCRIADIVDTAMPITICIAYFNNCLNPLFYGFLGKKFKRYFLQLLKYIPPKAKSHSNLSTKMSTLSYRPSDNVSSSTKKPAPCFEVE
Another data set has as its target AT2 Receptor (AT2R) (Homo sapiens (Human), UniProt P50052). Nature of the data set: Inhibitory activity on AT2 receptor (Tag-lite HTRF, Tb-labeled AT2R cells, angiotensin receptor red agonist). The settings on record: 1 h at room temperature. The class given is binding. (In TR-FRET formats the signal depends on donor and acceptor labels being close together.)
Data set [1] in a line: Pharmacokinetic (PK) test in mice. It counts as in vivo. The settings on record: male ICR mice, plasma; for AUC(0-inf): read-out: AUCINF_obs; for Cmax: read-out: C0/Cmax. The protocol:
To male ICR mice, the solution of Compound C2 (1 mg/mL) of the present invention and the solution of control Compound A (1 mg/mL) were administered intravenously (IV) and intragastrically (PO), in both of which the vehicle system is DMSO, solutol and deionized water (1:2:17, v:v:v). For Compound C2 and Compound A, the IV and PO dosages were 3 mg/kg and 20 mg/kg, respectively. For IV administration, blood was collected from the ophthalmic venous plexus of the mice at (0) horn before the administration and at 0.083, 0.25, 0.5, 1, 2, 4, 6, 8, and 24 horns after the administration, while for PO administration, blood was collected from ophthalmic venous plexus of the mice at (0) hour before the administration and at 0.25, 0.5, 1, 2, 4, 6, 8, and 24 horns after the administration. For Compound C2, a 0.05 mL blood sample was taken at each time point, while for Compound A, a 0.03 mL blood sample was taken at each time point. The collected blood sample was placed in a clean sample tube containing EDTA-K2 (4%), and centrifuged at 5000 rpm at 4° C. for 5 minutes. The resulting plasma was transferred to another clean sample tube, and stored at −20° C. LC-MS/MS analysis was performed on the plasma samples. The pharmacokinetic parameters were calculated using WinNonlin 6.3 software.

Like-named read-outs stand apart in the source and are kept apart here. Some results are limits rather than exact numbers.

Chain of AT2 Receptor (AT2R) (P50052 whole entry): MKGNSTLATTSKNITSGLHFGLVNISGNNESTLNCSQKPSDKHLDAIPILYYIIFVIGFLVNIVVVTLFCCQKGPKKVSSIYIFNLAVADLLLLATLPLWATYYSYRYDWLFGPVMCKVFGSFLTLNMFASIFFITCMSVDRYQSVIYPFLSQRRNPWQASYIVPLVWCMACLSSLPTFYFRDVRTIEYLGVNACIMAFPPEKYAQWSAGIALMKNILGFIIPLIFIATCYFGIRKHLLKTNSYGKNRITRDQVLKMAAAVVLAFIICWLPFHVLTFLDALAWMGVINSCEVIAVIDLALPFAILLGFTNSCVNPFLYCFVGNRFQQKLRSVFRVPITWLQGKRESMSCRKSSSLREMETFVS

Broadly, the IC50 is the concentration that inhibits the measured activity by half. Take `COC1=Cc2ccccc2N(C(=O)N2CCN(C(=O)N(c3ccccc3)c3ccccc3)C[C@H]2C(=O)O)c2ccccc21` [Compound C50, (S)-4-(diphenylcarbamoyl)-1-(10-methoxy-5H-dibenzo[b,f]azepine-5-carbonyl) piperazine-2-carboxylic acid]: the concentration for half-maximal inhibition (IC50) on AT1 Receptor (AT1R) is greater than 10000 nM.

In turn, `COc1ccccc1N(C(=O)N1CCN(C(=O)N2c3ccccc3CC(=O)c3ccccc32)[C@H](C(=O)O)C1)c1ccccc1OC` [Compound C94, (S)-4-(bis(2-methoxylphenyl)carbamoyl)-1-(10-oxo-10,11-dihydro-5H-dibenzo [b,f]azepine-5-carbonyl)piperazine-2-carboxylic acid] displayed an IC50 on AT1 Receptor (AT1R) greater than 10000 nM.

For the compound `O=C(O)[C@@H]1CN(C(=O)N2c3ccccc3Sc3ccccc32)CCN1C(=O)N(c1ccccc1)c1ccccc1` [Compound C44, (S)-1-(diphenylcarbamoyl)-4-(10H-phenothiazine-10-carbonyl)piperazine-2-carboxylic acid], the IC50 on AT2 Receptor (AT2R) is 62.6 nM; at AT1 Receptor (AT1R), greater than 10000 nM.

For the compound `O=C(O)[C@@H]1CN(C(=O)N(c2ccccc2)c2ccccc2)CCN1C(=O)C1(c2ccccc2)CCCCC1` [Compound C80, (S)-4-(diphenylcarbamoyl)-1-(1-phenylcyclohexanecarbonyl) piperazine-2-carboxylic acid], the 50% inhibitory concentration (IC50) is 12.7 nM at AT2 Receptor (AT2R) and greater than 10000 nM on AT1 Receptor (AT1R).

With `O=C(O)[C@@H]1CN(C(=O)C(c2ccccc2)c2ccccc2)CCN1C(=O)N1c2ccccc2C=Cc2ccccc21` [Compound C4, (S)-1-(5H-dibenzo [b,f]azepine-5-carbonyl)-4-(2,2-diphenylacetyl) piperazine-2-carboxylic acid], the half-inhibitory concentration (IC50) at AT2 Receptor (AT2R) was 45.1 nM; at AT1 Receptor (AT1R), greater than 10000 nM.

Take `O=C(O)[C@H]1CN(C(=O)N(c2ccccc2)c2ccccc2)CCN1C(=O)N1c2ccccc2C=Cc2ccccc21` [Compound C46, (R)-1-(5H-dibenzo [b,f]azepine-5-carbonyl)-4-(diphenylcarbamoyl) piperazine-2-carboxylic acid]: the IC50 at AT2 Receptor (AT2R) was 54.5 nM; at AT1 Receptor (AT1R) it was greater than 10000 nM.

For `O=C(O)[C@H]1CN(C(=O)N2c3ccccc3C=Cc3ccccc32)CCN1C(=O)N(c1ccccc1)c1ccccc1` [Compound C45, (R)-4-(5H-dibenzo[b,f]azepine-5-carbonyl)-1-(diphenylcarbamoyl) piperazine-2-carboxylic acid], the IC50 on AT2 Receptor (AT2R) is 55.5 nM; at AT1 Receptor (AT1R), greater than 10000 nM.

As to `O=C(O)[C@@H]1CN(C(=O)N2c3ccccc3C=Cc3ccccc32)CCN1C(=O)N(c1ccccc1)c1ccccc1` [Compound C1, (S)-4-(5H-dibenzo[b,f]azepine-5-carbonyl)-1-(diphenylcarbamoyl) piperazine-2-carboxylic acid], the concentration for half-maximal inhibition (IC50) at AT2 Receptor (AT2R) is 18.8 nM; at AT1 Receptor (AT1R), greater than 10000 nM.

Compound `O=C(O)[C@@H]1CN(C(=O)C(c2ccccc2)c2ccccc2)CCN1C(=O)C1(c2ccccc2)CCCCC1` [Compound C81, (S)-4-(2,2-diphenylacetyl)-1-(1-phenylcyclohexanecarbonyl) piperazine-2-carboxylic acid] gave an IC50 on AT1 Receptor (AT1R) greater than 10000 nM.

On to `O=C(O)[C@@H]1CN(C(=O)N2c3ccccc3C=Cc3ccccc32)CCN1C(=O)N1c2ccccc2C=Cc2ccccc21` [Compound C3, (S)-1,4-bis(5H-dibenzo[b,f]azepine-5-carbonyl) piperazine-2-carboxylic acid], for which the half-maximal inhibitory concentration (IC50) is 32.5 nM on AT2 Receptor (AT2R) and greater than 10000 nM at AT1 Receptor (AT1R).

Usually bioavailability stands for dose-corrected exposure relative to a reference, in per cent. The low end stands for little systemic uptake, the high end for much systemic uptake. The AUC(0-t) is the area under the concentration-time curve up to a stated or last time point. Read a low AUC(0-t) as low exposure. The MRT last is the average time that molecules of a dose stay in the body. A word on the half-life: it is the time needed for the level to fall by half in the phase considered. In turn, `O=C(O)[C@@H]1CN(C(=O)N(c2ccccc2)c2ccccc2)CCN1C(=O)N(c1ccccc1)c1ccccc1` [A, reference compound] had a CL_obs in data set [1] (IV, 3 mg/kg) of 41.8933 mL/min/kg. This compound also returned a bioavailability in data set [1] (mouse, PO 20 mg/kg vs IV 3 mg/kg) of 6.26%. For the same compound, in data set [1] (mouse, IV, 3 mg/kg), the AUC(0-t) amounted to 1190 ng·h/mL, the MRT last turned out to be 17.4 min, the half-life is 30 min and the AUC(0-inf) came to 1200 ng·h/mL. Further, the Cmax in data set [1] (mouse, IV, 3 mg/kg) stood at 7170 ng/mL. Further, in data set [1] (mouse, PO, 20 mg/kg), the area under the curve AUC(0-t) was 495 ng·h/mL, the mean residence time MRT last is 63.6 min, the half-life was 52.3 min and the AUC(0-inf) was 499 ng·h/mL. Further, the Cmax in data set [1] (mouse, PO, 20 mg/kg) was found to be 366 ng/mL.

`O=C(O)[C@@H]1CN(C(=O)N2c3ccccc3Sc3ccccc32)CCN1C(=O)C(c1ccccc1)c1ccccc1` [Compound C12, (S)-1-(2,2-diphenylacetyl)-4-(10H-phenothiazine-10-carbonyl) piperazine-2-carboxylic acid]: the half-inhibitory concentration (IC50) at AT2 Receptor (AT2R) was 43.7 nM; at AT1 Receptor (AT1R), greater than 10000 nM.

On to `O=C1Cc2ccccc2N(C(=O)N2CCN(C(=O)N(c3ccccc3)c3ccccc3)C[C@H]2C(=O)O)c2ccccc21` [Compound C77, (S)-4-(diphenylcarbamoyl)-1-(10-oxo-10,11-dihydro-5H-dibenzo[b,f]azepine-5-carbonyl)piperazine-2-carboxylic acid], for which the 50% inhibitory concentration (IC50) on AT2 Receptor (AT2R) was 32.3 nM; on AT1 Receptor (AT1R) it was greater than 10000 nM.

In the case of `O=C(O)[C@@H]1CN(C(=O)N(c2ccccc2)c2ccccc2)CCN1C(=O)N1c2ccccc2Sc2ccccc21` [Compound C20, (S)-4-(diphenylcarbamoyl)-1-(10H-phenothiazine-10-carbonyl)piperazine-2-carboxylic acid], the half-maximal inhibitory concentration (IC50) on AT2 Receptor (AT2R) is 36.7 nM; on AT1 Receptor (AT1R), greater than 10000 nM.

`CN(C)S(=O)(=O)NC(=O)[C@@H]1CN(C(=O)N(c2ccccc2)c2ccccc2)CCN1C(=O)N1c2ccccc2C=Cc2ccccc21` [Compound C33, (S)-4-(5H-dibenzo[b,f]azepine-5-carbonyl)-N^3—(N,N-dimethylsulphamoyl)-N^1,N^1-phenylpiperazine-1,3-dicarboxamide]: the IC50 on AT2 Receptor (AT2R) is 35.9 nM; on AT1 Receptor (AT1R), greater than 10000 nM.

At AT2 Receptor (AT2R), `CN1C(=O)c2ccccc2N(C(=O)N2CCN(C(=O)N(c3ccccc3)c3ccccc3)C[C@H]2C(=O)O)c2ccccc21` [Compound C96] gave an IC50 of 13.1 nM. That is a double-digit nanomolar value.

As to `Cc1ccc(CN(C(=O)N2CCN(C(=O)N(c3ccccc3)c3ccccc3)[C@H](C(=O)O)C2)C2CC2)s1` [Compound C145, (S)-4-(cyclopropyl((5-methylthiophen-2-yl)methyl)carbamoyl)-1-(diphenylcarbamoyl) piperazine-2-carboxylic acid], at AT2 Receptor (AT2R), the IC50 was 3.61 nM. This IC50 is about 3.6-fold lower than that of the compound before.

Turning to `CN(Cc1ccccc1)C(=O)N1CCN(C(=O)C2(c3ccccc3)CCCCC2)[C@H](C(=O)O)C1` [Compound C87, (S)-4-(benzyl(methyl)carbamoyl)-1-(1-phenylcyclohexanecarbonyl) piperazine-2-carboxylic acid], the 50% inhibitory concentration (IC50) at AT2 Receptor (AT2R) came out at 389 nM.

Turning to `O=C(O)[C@@H]1CN(C(=O)N2c3ccccc3C=Cc3ccccc32)CCN1C(=O)C(c1ccccc1)c1ccccc1` [Compound C5, (S)-4-(5H-dibenzo [b,f]azepine-5-carbonyl)-1-(2,2-diphenylacetyl) piperazine-2-carboxylic acid], the IC50 on AT2 Receptor (AT2R) was 6.47 nM; on AT1 Receptor (AT1R), greater than 10000 nM.

In the case of `O=C(O)[C@@H]1CN(C(=O)N(c2ccccc2)c2ccccc2)CCN1C(=O)N1CCC[C@H]1c1ccccc1` [Compound C129, (S)-4-(diphenylcarbamoyl)-1-((S)-2-phenylpyrrolidinyl-1-carbonyl)piperazine-2-carboxylic acid], the IC50 on AT2 Receptor (AT2R) came out at 98.6 nM.

Take `COc1ccccc1N(C(=O)N1CCN(C(=O)N2c3ccccc3CC(=O)c3ccccc32)[C@H](C(=O)NS(=O)(=O)N(C)C)C1)c1ccccc1OC` [Compound C111, (S)-N^3-(N,N-dimethylsulphamoyl)-N^1,N^1-bis (2-methoxyphenyl)-4-(10-oxo-10,11-dihydro-5H-dibenzo[b,f]azepine-5-carbonyl) piperazine-1,3-dicarboxamide]: the IC50 on AT2 Receptor (AT2R) came to 229 nM.
